In patent US6800633B2, “Pyrrolo[2,3d]pyrimidine compositions and their use” (OSI Pharmaceuticals, Inc., priority 1998, dated 2004):
pKi: −log10 of the molar value. Read-outs that look alike come from different tables or passages of the source.

Experiments:
[1] = target: human A2a receptor subtype (Homo sapiens, UniProt P29274); assay: Adenosine 2a receptor subtype competition radioligand binding, [3H]CGS-21680, HEK293 membranes
[2] = target: T1, human A2b receptor subtype (Homo sapiens, UniProt P29275); assay: Adenosine 2b receptor subtype competition radioligand binding, [3H]DPCPX, HEK293 membranes; details: for pKi: Table 13, read-out: Binding Ki (nm) A2b
T1 construct: expressed in transfected cells; host or cells: HEK293
T1 sequence (P29275 1-332): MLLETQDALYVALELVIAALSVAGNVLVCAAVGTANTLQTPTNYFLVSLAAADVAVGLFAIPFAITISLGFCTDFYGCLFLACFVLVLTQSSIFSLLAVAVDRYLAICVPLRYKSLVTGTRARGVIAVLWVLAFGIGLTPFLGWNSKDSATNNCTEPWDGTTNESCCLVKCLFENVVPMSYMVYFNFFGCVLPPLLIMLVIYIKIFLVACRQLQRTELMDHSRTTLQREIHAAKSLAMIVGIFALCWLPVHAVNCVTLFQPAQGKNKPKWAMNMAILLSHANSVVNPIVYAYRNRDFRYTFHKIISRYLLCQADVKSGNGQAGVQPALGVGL

[3] = target: T2, human A3 receptor subtype (Homo sapiens, UniProt P0DMS8); assay: Adenosine 3 receptor competition radioligand binding, [125I]AB-MECA, HEK293 membranes
T2 sequence (P0DMS8 1-318): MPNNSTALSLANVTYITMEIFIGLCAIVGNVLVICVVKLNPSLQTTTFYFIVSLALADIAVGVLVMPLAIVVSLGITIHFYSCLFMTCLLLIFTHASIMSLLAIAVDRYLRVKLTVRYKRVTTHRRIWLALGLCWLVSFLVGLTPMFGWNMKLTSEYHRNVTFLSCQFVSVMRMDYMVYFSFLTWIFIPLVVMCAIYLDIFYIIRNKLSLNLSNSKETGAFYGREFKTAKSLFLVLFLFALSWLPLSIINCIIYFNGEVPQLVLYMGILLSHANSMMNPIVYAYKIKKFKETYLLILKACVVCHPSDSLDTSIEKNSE

[4] = target: T3, human A1 receptor subtype (Homo sapiens, UniProt P30542); assay: biochemical
T3 sequence (P30542 1-326): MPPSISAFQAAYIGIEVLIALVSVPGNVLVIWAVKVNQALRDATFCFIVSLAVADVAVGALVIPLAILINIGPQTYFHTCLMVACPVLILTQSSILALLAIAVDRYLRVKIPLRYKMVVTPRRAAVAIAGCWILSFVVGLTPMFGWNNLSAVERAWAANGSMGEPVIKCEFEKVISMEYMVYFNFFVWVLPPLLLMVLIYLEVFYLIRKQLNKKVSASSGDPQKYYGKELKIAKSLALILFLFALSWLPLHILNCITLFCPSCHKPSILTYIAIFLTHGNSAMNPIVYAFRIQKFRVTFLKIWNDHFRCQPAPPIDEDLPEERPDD

[5] = Water solubility (footnote to Table 13); format: physicochemical
[6] = target: T3, human A1 receptor subtype
[7] = target: T4, human A1 adenosine receptor (Homo sapiens, UniProt P30542); details: A1 adenosine receptor agonist; cited from earlier work
T4 sequence (P30542 1-326): T3 sequence (P30542 1-326)

[8] = Table 13, given as %, footnote 8: % activity @ 10 μM

Chain of human A2a receptor subtype (P29274 whole entry): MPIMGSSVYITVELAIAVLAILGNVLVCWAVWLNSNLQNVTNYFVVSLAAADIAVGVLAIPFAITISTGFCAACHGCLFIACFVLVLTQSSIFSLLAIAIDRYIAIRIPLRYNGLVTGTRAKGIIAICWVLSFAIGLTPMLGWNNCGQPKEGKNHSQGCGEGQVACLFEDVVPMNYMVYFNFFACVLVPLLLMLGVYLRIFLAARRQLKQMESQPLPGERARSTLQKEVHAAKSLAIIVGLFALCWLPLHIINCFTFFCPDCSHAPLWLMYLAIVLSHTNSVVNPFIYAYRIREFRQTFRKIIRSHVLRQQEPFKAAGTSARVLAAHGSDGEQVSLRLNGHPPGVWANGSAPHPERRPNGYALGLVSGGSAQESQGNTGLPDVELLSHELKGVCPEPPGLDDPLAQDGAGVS

With `CNC(=O)NCCCNc1nc(-c2ccccc2)nc2[nH]c(C)c(C)c12` [CDS-121180] the “A2a binding, % activity” value [1, 8] was 76%.

For `Cc1[nH]c2nc(-c3ccccc3)nc(NC3CCC(O)CC3)c2c1C` (stereo not shown) [CDS-046142], the pKi [2] was 6.86 and the pKi [3] was 7.67.

For `CC(=O)NCCNc1nc(-c2ccccc2)nc2[nH]c(COc3ccccc3)cc12` [CDS-129851, 4-(2-acetylaminoethyl)amino-6-phenoxymethyl-2-phenyl-7H-pyrrolo[2,3d]pyrimidine], the pKi [4] was 7.38 and the pKi [3] was 7.84.

In the case of `Cc1[nH]c2nc(-c3ccccc3)nc(NCCNC(=O)C3(N)CC3)c2c1C` [CDS-123264], the water solubility [5] was “^3water soluble;” and the “A1 binding, % activity” value [6, 8] was 30%.

Work on `Cc1[nH]c2nc(-c3ccccc3)nc(NC3CCC(NS(C)(=O)=O)CC3)c2c1C` (stereo not shown) [CDS-056176] yielded a pKi ([6]; read-out: A1 Binding Ki, membranes from yeast cells transformed with human A1 receptor, [3H]DPCPX 1.0 nM) of under 5.00.

With `Cc1[nH]c2nc(-c3cccs3)nc(NC3CCC(O)CC3)c2c1C` (stereo not drawn) [CDS-090890, 4-(4-trans-hydroxycyclohexyl)amino-5,6-dimethyl-2-(2-thienyl)-7H-pyrrolo[2,3d]pyrimidin-4-amine] the “A2b binding, % activity” value [2, 8] was 30%, the pKi [1] was 6.14 and the pKi [3] was 8.00.

For `O[C@H]1CC[C@H](Nc2nc(-c3ccncc3)nc3[nH]ccc23)CC1` [CDS-131921, 4-(trans-4-hydroxycyclohexyl)amino-2-(4-pyridyl)-7H-pyrrolo[2,3d]pyrimidine], the “A3 binding, % activity @ 10 μM” value ([3]; Table 13, 10 μM) was 54%^8.

In the case of `CC(Cc1ccccc1)Nc1ncnc2c1ncn2[C@@H]1O[C@H](CO)[C@@H](O)[C@H]1O` (single isomer, unassigned; (-)) [R-PIA, (−)-N6-(2-phenylisopropyl)-adenosine], the reported affinity [7] is listed as “approximately 50 nM”.

`CC(=O)NCCNc1nc(-c2ccccc2)nc2[nH]c(Cn3ccccc3=O)cc12` [CDS-143988, 4-(2-acetylaminoethyl)amino-6-(N-pyridin-2-one)methyl-2-phenyl-7H-pyrrolo[2,3d]pyrimidine] gave a Ki ([2]; Table 14, read-out: Binding Data Ki (nM) A2B) of 47 nM.

Molecule `Cc1[nH]c2nc(-c3ccccc3)nc(NCCCNC(=O)CCN)c2c1C` [CDS-121181] has a pKi [4] of 4.12 and a pKi [2] of 5.47.
